Test results: patent US6544996B2, “1-phenyl-4-(1-[2-aryl]cyclopropyl) methylpiperazines: dopamine receptor ligands” (Neurogen Corporation, priority 1999, dated 2003)

Key:
[1] = target: T1, recombinantly produced D2 receptors from human (COS cells) (Homo sapiens, UniProt P14416); experiment: biochemical; assay type: binding; details: COS cell pellets, 0.5 nM 3H-YM 09151-2
T1 construct: expressed in transfected cells; host or cells: COS cells
Experimental: (§1) Pellets of COS cells containing recombinantly produced D2 or D4 receptors from human are used for the assays. The sample is homogenized in 100 volumes (w/vol) of 0.05 M Tris HCl buffer at 4° C. and pH 7.4. The sample is then centrifuged at 30,000×g and resuspended and rehomogenized. The sample is then centrifuged as described and the final tissue sample is frozen until use. The tissue is resuspended […] (wt/vol) in 0.05 M Tris HCl buffer containing 100 mM NaCl.

[2] = target: T2, recombinantly produced D4 receptors from human (COS cells) (Homo sapiens, UniProt P21917); experiment: Determination of D4 receptor binding activity (3H-YM 09151-2 displacement)
T2 construct: expressed in transfected cells; host or cells: COS cells
T2 sequence (P21917 1-419): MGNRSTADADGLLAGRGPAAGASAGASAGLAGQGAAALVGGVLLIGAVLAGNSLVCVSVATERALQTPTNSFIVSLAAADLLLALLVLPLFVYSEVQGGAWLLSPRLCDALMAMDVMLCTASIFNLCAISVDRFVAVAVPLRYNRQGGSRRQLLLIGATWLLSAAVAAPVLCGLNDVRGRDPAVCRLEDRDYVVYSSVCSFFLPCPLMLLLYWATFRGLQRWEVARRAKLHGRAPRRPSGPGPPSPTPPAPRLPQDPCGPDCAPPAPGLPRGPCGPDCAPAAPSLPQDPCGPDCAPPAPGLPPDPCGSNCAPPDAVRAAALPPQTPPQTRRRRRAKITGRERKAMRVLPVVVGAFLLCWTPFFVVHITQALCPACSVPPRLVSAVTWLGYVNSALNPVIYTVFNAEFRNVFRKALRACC
Experimental: as §1

T1 sequence (P14416 whole entry): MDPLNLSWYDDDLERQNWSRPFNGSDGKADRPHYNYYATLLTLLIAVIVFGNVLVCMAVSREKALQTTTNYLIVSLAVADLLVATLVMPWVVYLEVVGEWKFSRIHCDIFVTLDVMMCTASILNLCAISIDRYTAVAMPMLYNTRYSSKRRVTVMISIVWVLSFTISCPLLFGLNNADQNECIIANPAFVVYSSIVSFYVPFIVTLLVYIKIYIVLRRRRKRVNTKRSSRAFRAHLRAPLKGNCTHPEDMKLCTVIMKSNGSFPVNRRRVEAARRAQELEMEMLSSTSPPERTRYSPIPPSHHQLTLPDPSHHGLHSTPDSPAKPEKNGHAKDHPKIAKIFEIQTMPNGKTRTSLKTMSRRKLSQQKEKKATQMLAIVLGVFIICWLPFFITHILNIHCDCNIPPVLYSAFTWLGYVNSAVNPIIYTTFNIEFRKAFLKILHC

| melting point [°C] | Compound | Ki [1] [nM] | Ki [2] [nM] |
| --- | --- | --- | --- |
| 197 to 198 | Br.Cc1cc([N+](=O)[O-])ccc1N1CCN(C[C@@H]2C[C@H]2c2ccccc2)CC1 (relative stereo) | – | – |
| 284 to 285 | Br.Cc1cc(N)ccc1N1CCN(C[C@@H]2C[C@H]2c2ccccc2)CC1 (relative stereo) | – | – |
| – | Clc1ccc([C@H]2C[C@@H]2CN2CCN(c3ccc(Cl)cc3)CC2)cc1 (relative stereo) [Compound 3, 1-(4-chlorophenyl)-4-(trans-2-[4-chlorophenyl]cyclopropyl)methylpiperazine] | 523 | 8 |
| 182 to 183 | Br.Cc1cc(Br)ccc1N1CCN(C[C@@H]2C[C@H]2c2ccccc2)CC1 (relative stereo) | – | – |
